# Measurements published in patent publication US5244920A, “Pharmaceutical compositions having therapeutical activity based on mercaptoethansulphonic arginine salt” (Schering Spa, priority 1985, dated 1993).
# Tests used:
# pH in water solution = format: physicochemical; conditions: 10% aqueous solution
# solubility in water = format: physicochemical
# urinary Trp metabolites = test: in vivo trial: urinary tryptophan and metabolites in bladder cancer patients (HPLC in reverse phase)
# Description: 24 bladder cancer patients were randomized into two groups to receive MESNA-Arginine (per os, 800 mg/daily) or placebo. In both groups 24 hours before and after administration of the drug (MESNA-Arginine, or Placebo), urinary Kynurenine (Ky), Xanthurenic acid (XA), 5-hydroxy-indoleacetic acid (5-HIAA), AA, Trp and 3-OH-AA were determined by HPLC in reverse phase (Rocchini P., Bizzari M., Pompei M; Ciani D., Panicucci M. and Gallo S. Urinary determination of Tryptophan and related metabolites through HPLC in reverse-phase. Rass. Chimi. 1:15-18, 1984.)
# [1] = background statement; cited from earlier work
# [2] = per os, 800 mg/daily, after 24 hours, P-0.001
# [3] = per os, 800 mg/daily, after 24 hours, listed as MESNA-Arginine
# [4] = per os, 800 mg/daily, after 24 hours, listed as MESNA-arginine
Compound,pH in 10% water solution (pH in water solution),solubility in water (solubility in water),cerebral uptake of Trp (urinary Trp metabolites; inferred from rate excretion of 5-HIAA),"urinary tryptophan levels (urinary Trp metabolites; per os, 800 mg/daily, after 24 hours)",reduction of urinary 3-OH-anthranilic acid (urinary Trp metabolites; [2]) [%],reduction of urinary anthranilic acid (urinary Trp metabolites; [2]) [%],urinary 5-HIAA (urinary Trp metabolites; [3]),urinary kynurenine (Ky) (urinary Trp metabolites; [3]),urinary xanthurenic acid (XA) (urinary Trp metabolites; [3]),urinary 5-HIAA (urinary Trp metabolites; [4]),urinary kynurenine (Ky) (urinary Trp metabolites; [4]),urinary xanthurenic acid (XA) (urinary Trp metabolites; [4]),instability of the compound in the free state [1]
"O=S(=O)(O)CCS [Example 2, arginine mercaptoethansulphonate]",6.7,perfect,no variations,slight reduction,-71,-61,no variation,no variation,no variation,substantial invariance,unchanged,unchanged,
"O=S(=O)(O)CCS [MESNA, mercaptoethansulphonic acid]",,,,,,,,,,,,,high instability
